Assay results: patent US20250074896A1, “ARYLTETRAHYDROPYRIDAZINE DERIVATIVE OR SALT THEREOF AND INSECTICIDAL AGENT CONTAINING THE COMPOUND AND METHOD FOR USING SAME” (NIHON NOHYAKU CO., LTD., priority 2021, published 2025)
Where two headings read alike, the source gives them in different places.

Experiments:
Format in all cases: in vivo
[1] = test system: Diamondback moth (Plutella xylostella); test: Insecticidal test on diamondback moth (dip treatment of Chinese cabbage seedlings with laid eggs); settings: 144 h, read-out: insecticidal efficacy (corrected mortality rate) against diamondback moth
Text: Insecticidal Test on Diamondback moth (Plutella xylostella)
Adults of diamondback moth were released onto Chinese cabbage seedlings and allowed to lay eggs thereon. At 2 days after the release of the adults, the Chinese cabbage seedlings with laid eggs were dipped for about 30 seconds in agrochemical dispersions diluted to 50 ppm or 500 ppm, each of which contained a different compound represented by the general formula (1) of the present invention as an active ingredient. After air-dried, the seedlings were kept in a thermostatic chamber at 25° C. At 6 days after the dip treatment, the number of surviving larvae per plot was counted, the corrected mortality rate was calculated according to the formula shown below, and the insecticidal efficacy was evaluated according to the criteria shown below. This test was conducted in triplicate using 10 adults of diamondback moth per plot.
(§1) • A: the mortality rate is 100%. • B: the mortality rate is 90 to 99%. • C: the mortality rate is 80 to 89%. • D: the mortality rate is 50 to 79%. • E: the mortality rate is 0 to 49%.

[2] = test system: Western Flower Thrips (Frankliniella occidentalis); test: Insecticidal test on western flower thrips (kidney bean leaf pieces, hatched larvae); settings: 96 h, read-out: insecticidal efficacy (corrected mortality rate) against western flower thrips
Text: as §1
Insecticidal Test on Western Flower Thrips (Frankliniella occidentalis)
Female adults of western flower thrips were inoculated onto kidney bean leaf pieces, and allowed to lay eggs thereon for one day, then the female adults were removed. After 3 days, the hatched larvae on the leaf pieces were counted, and then the agrochemical dispersions diluted to 50 ppm or 500 ppm, each of which contained the compound described in Tables 1 to 6 as an active ingredient were applied. The number of larvae of the species surviving at 4 days after the treatment was counted, and the corrected mortality rate was calculated according to the formula shown below, and the insecticidal efficacy was evaluated according to the criteria of Test Example 1. This test was conducted in duplicate.

[3] = test system: Small Brown Planthopper (Laodelphax striatellus); test: Insecticidal test on small brown planthopper (dipped rice seedlings, 3rd-instar larvae); settings: 192 h, rice seedlings dipped 30 seconds, 8 days after inoculation, read-out: insecticidal efficacy (corrected mortality rate) against small brown planthopper
Text: as §1
Insecticidal Test on Small Brown Planthopper (Laodelphax striatellus)
The compounds represented by the general formula (1) of the present invention or salts thereof were separately dispersed in water and diluted to 50 ppm or 500 ppm. Rice plant seedlings (variety: Nihonbare) were dipped in the agrochemical dispersions for 30 seconds. After air-dried, each seedling was put into a separate glass test tube and inoculated with ten 3rd-instar larvae of small brown planthopper, and then the glass test tubes were capped with cotton plugs. At 8 days after the inoculation, the numbers of surviving larvae and dead larvae were counted, the corrected mortality rate was calculated according to the formula shown below, and the insecticidal efficacy was evaluated according to the criteria of Test Example 1.

[4] = 500 ppm, dip about 30 seconds, 6 days after treatment, 25° C.
[5] = 500 ppm, 4 days after the treatment
[6] = dip about 30 seconds, 6 days after treatment, 25° C.

O=C(Nc1ccc(C(F)(F)F)cc1)C1=C(O)CN(c2ccc(C(F)(F)F)nc2)NC1=O [1-85, N-(4-trifluoromethylphenyl)-5-hydroxy-3-oxo-1-(6-(trifluoromethyl)pyridin-3-yl)-1,2,3,6-tetrahydropyridazine-4-carboxamide]
100%: mortality at 500 ppm [1] | mortality at 500 ppm [2]

CCNC(=O)N1C(=O)C(C(=O)Nc2ccc(F)cc2)=C(O)CN1c1ccc(C(F)(F)F)nc1 [3-22, N^1-ethyl-N^5-(4-fluorophenyl)-4-hydroxy-6-oxo-2-(6-(trifluoromethyl)pyridin-3-yl)-2,3-dihydropyridazine-1,5(6H)-dicarboxamide]
100%: mortality at 500 ppm [1, 4] | mortality at 500 ppm [3] | mortality at 50 ppm ([2]; 4 days after the treatment) | mortality at 500 ppm [2, 5]

CC(C)(C)OC(=O)N1C(=O)C(C(=O)Nc2ccc(F)cc2)=C(O)CN1c1ccc(C(F)(F)F)nc1 [3-308, tert-butyl 5-((4-fluorophenyl)carbamoyl)-4-hydroxy-6-oxo-2-(6-(trifluoromethyl)pyridin-3-yl)-2,3-dihydropyridazine-1(6H)-carboxylate]
100%: mortality at 50 ppm [1, 6] | mortality at 500 ppm [1, 4] | mortality at 50 ppm [3] | mortality at 500 ppm [3] | mortality at 50 ppm ([2]; 4 days after the treatment) | mortality at 500 ppm [2, 5]

CNC(=S)N1C(=O)C(C(=O)Nc2ccc(F)cc2)=C(O)CN1c1ccc(C(F)(F)F)nc1 [3-362, N-(4-fluorophenyl)-5-hydroxy-2-(methylcarbamothioyl)-3-oxo-1-(6-(trifluoromethyl)pyridin-3-yl)-1,2,3,6-tetrahydropyridazine-4-carboxamide]
100%: mortality at 50 ppm [1, 6] | mortality at 500 ppm [1, 4] | mortality at 50 ppm ([2]; 4 days after the treatment) | mortality at 500 ppm [2, 5]

COC(=O)N1C(=O)C(C(=O)Nc2ccn(C)n2)=C(O)CN1c1ccc(C#N)cc1 [3-437, methyl 2-(4-cyanophenyl)-4-hydroxy-5-((1-methyl-1H-pyrazol-3-yl)carbamoyl)-6-oxo-2,3-dihydropyridazine-1(6H)-carboxylate]
100%: mortality at 50 ppm [3] | mortality at 500 ppm [3] | mortality at 50 ppm ([2]; 4 days after the treatment) | mortality at 500 ppm [2, 5]

CCCNC(=O)N1C(=O)C(C(=O)Nc2ccn(C)n2)=C(O)CN1c1ccc(C#N)cc1 [3-563, N^5-(1-methyl-1H-pyrazol-3-yl) N^1-propyl 4-hydroxy-6-oxo-2-(4-cyanophenyl)-2,3-dihydropyridazine-1,5(6H)-dicarboxamide]
100%: mortality at 50 ppm [3] | mortality at 500 ppm [3]

CC(C)(C)OC(=O)N1C(=O)C(C(=S)Nc2ccc(F)cc2)=C(O)CN1c1ccc(C(F)(F)F)nc1 [4-34, tert-butyl 5-((4-fluorophenyl)carbamothioyl)-4-hydroxy-6-oxo-2-(6-(trifluoromethyl)pyridin-3-yl)-2,3-dihydropyridazine-1(6H)-carboxylate]
100%: mortality at 50 ppm [1, 6] | mortality at 500 ppm [1, 4] | mortality at 50 ppm [3] | mortality at 500 ppm [3] | mortality at 50 ppm ([2]; 4 days after the treatment) | mortality at 500 ppm [2, 5]

O=C(Nc1ccc(F)cc1)C1=C(S)CN(c2ccc(C(F)(F)F)nc2)NC1=O [5-2, N-(4-fluorophenyl)-5-mercapto-3-oxo-1-(6-(trifluoromethyl)pyridin-3-yl)-1,2,3,6-tetrahydropyridazine-4-carboxamide]
100%: mortality at 50 ppm [1, 6] | mortality at 500 ppm [1, 4] | mortality at 50 ppm [3] | mortality at 500 ppm [3] | mortality at 50 ppm ([2]; 4 days after the treatment) | mortality at 500 ppm [2, 5]

CC(C)(C)OC(=O)N1C(=O)C(C(=O)Nc2ccc(F)cc2)=C(S)CN1c1ccc(C(F)(F)F)nc1 [5-7, tert-butyl 5-((4-fluorophenyl)carbamoyl)-4-mercapto-6-oxo-2-(6-(trifluoromethyl)pyridin-3-yl)-2,3-dihydropyridazine-1(6H)-carboxylate]
100%: mortality at 50 ppm [1, 6] | mortality at 500 ppm [1, 4] | mortality at 50 ppm [3] | mortality at 500 ppm [3] | mortality at 50 ppm ([2]; 4 days after the treatment) | mortality at 500 ppm [2, 5]

CSC1=C(C(=O)Nc2ccc(F)cc2)C(=O)N(C(=O)OC(C)(C)C)N(c2ccc(C(F)(F)F)nc2)C1 [5-11, tert-butyl 5-((4-fluorophenyl)carbamoyl)-4-methylsulfanyl-6-oxo-2-(6-(trifluoromethyl)pyridin-3-yl)-2,3-dihydropyridazine-1(6H)-carboxylate]
100%: mortality at 50 ppm [1, 6] | mortality at 500 ppm [1, 4] | mortality at 50 ppm [3] | mortality at 500 ppm [3] | mortality at 50 ppm ([2]; 4 days after the treatment) | mortality at 500 ppm [2, 5]

N#Cc1ccc(N2CC(O)=C(C(=O)Nc3ccc(F)cc3)C(=S)N2)cn1 [6-6, 1-(6-cyanopyridin-3-yl)-N-(4-fluorophenyl)-5-hydroxy-3-thioxo-1,2,3,6-tetrahydropyridazine-4-carboxamide]
100%: mortality at 500 ppm [1, 4] | mortality at 500 ppm [3] | mortality at 500 ppm [2, 5]
